Holding throughout (type): functional
One assay concerns HeLa. Description: Cytotoxicity against human HeLa cells after 48 hrs by MTT assay. Also noted: concentration or dose not given beside the values. For orientation: Tetrazolium dyes change colour on reduction, which living cells bring about.
Assay [1] deals with Mycobacterium tuberculosis. Description: Antituberculosis activity against Mycobacterium tuberculosis H37Rv by agar dilution method. (In general: In agar dilution the substance is mixed into plates at graded concentrations.)
The test system of a further assay is A549. Description: Cytotoxicity against human A549 cells after 48 hrs by MTT assay. Also noted: concentration or dose not given beside the values.
For a further assay, the system named is SK-N-SH. Description: Cytotoxicity against human SK-N-SH cells after 48 hrs by MTT assay. Also noted: concentration or dose not given beside the values.

Values after ≈ are worked out from the molar mass of the structure shown. Active and inactive are the calls of the source. The calls are words filed in the database; no cut-off is given here.

For orientation: MIC means the lowest concentration found to suppress growth.

Consider `CCOC(=O)C1=C(C)NC(=S)NC1c1coc2ccccc2c1=O` (stereo not given), for which the Activity with HeLa is given as 49.3%; with A549, 26.3%; in the assay on SK-N-SH, 32.7%. In assay [1], the MIC was determined as 72.7 µM (≈ 25 µg/mL).
Take `CCOC(=O)C1=C(C(F)(F)F)NC(=O)NC1c1coc2cccc(C)c2c1=O` (stereo not given): the Activity in the assay on HeLa was 61.3%; in the assay on A549 it was 22%; in the assay on SK-N-SH it was 35.9%. The molecule also registered a minimum inhibitory concentration (MIC) in assay [1] of 3.91 µM (≈ 1.55 µg/mL).
`CCOC(=O)C1=C(C)NC(=O)NC1c1coc2c(ccc3occc32)c1=O` (stereo not given): the results for the Activity in the assay with HeLa and with A549 were 42.4% and 33.8%, respectively. It took 34 µM (≈ 12.5 µg/mL) to inhibit growth in assay [1] (MIC). The outcome with SK-N-SH was inactive.
For the molecule `CCOC(=O)C1=C(C)NC(=O)NC1c1coc2ccc(-c3ccco3)cc2c1=O` (stereo not given), the values for the Activity with HeLa, in the assay with A549 and with SK-N-SH were 35.4%, 34.5% and 46.4%, respectively. In assay [1], this molecule yielded an MIC of 15.9 µM (≈ 6.25 µg/mL).
Consider `CCOC(=O)C1=C(C)NC(=S)NC1c1coc2ccc(C)cc2c1=O` (stereo not given), for which the Activity in the assay with HeLa is listed as 43.2%; in the assay on A549, 18.3%; in the assay on SK-N-SH, 7%. This molecule also came in with an MIC in assay [1] of 34.9 µM (≈ 12.5 µg/mL).
Consider `COCCOC(=O)C1=C(C)NC(=O)NC1c1coc2ccc(-c3ccccc3)cc2c1=O` (stereo not given), for which the Activity with HeLa came to 33.5%; in the assay with A549 it was 34.4%; with SK-N-SH, 13.4%. In assay [1], this molecule displayed an MIC of 57.6 µM (≈ 25 µg/mL).
As to `CCOC(=O)C1=C(c2ccccc2)NC(=O)NC1c1coc2ccccc2c1=O` (stereo not given), the results for the Activity in the assay on HeLa, with A549 and in the assay with SK-N-SH were 5.3%, 15.4% and 15%, respectively. The minimal inhibitory concentration (MIC) in assay [1] was 64.1 µM (≈ 25 µg/mL).
As to `COCCOC(=O)C1=C(C)NC(=O)NC1c1coc2ccc(C)cc2c1=O` (stereo not given), the Activity in the assay on HeLa is reported as 40.2%; with A549 it was 28.4%; in the assay with SK-N-SH, 35.6%. In addition, in assay [1], the MIC is 34.1 µM (≈ 12.7 µg/mL).
As for `CCOC(=O)C1=C(C)NC(=S)NC1c1coc2ccc(Br)cc2c1=O` (stereo not given), the Activity in the assay with HeLa came out at 41.1%; with A549 it was 43.5%; with SK-N-SH, 20%. Moreover, it took 29.7 µM (≈ 12.6 µg/mL) to inhibit growth in assay [1] (MIC).
The matching figures for `CCOC(=O)C1=C(C)NC(=O)NC1c1coc2ccc(C)cc2c1=O` (stereo not given): 16.6%, 24.8%, 1.7% and 36.5 µM (≈ 12.5 µg/mL).
Turning to `CCOC(=O)C1=C(c2ccccc2)NC(=O)NC1c1coc2ccc(-c3ccccc3)cc2c1=O` (stereo not given), the outcome in the assay with HeLa, in the assay with A549 and in the assay with SK-N-SH was inactive. For the same molecule, in assay [1], 25.9 µM (≈ 12.1 µg/mL) was the least that counted as inhibitory (MIC).
`CCOC(=O)C1=C(C)NC(=O)NC1c1coc2ccc(-c3ccccc3)cc2c1=O` (stereo not given): the Activity in the assay on HeLa is listed as 45.3%; with A549, 7.2%. Also, the MIC in assay [1] stood at 30.7 µM (≈ 12.4 µg/mL). Moreover, the result with SK-N-SH was inactive.
Consider `CCOC(=O)C1=C(c2ccccc2)NC(=O)NC1c1coc2c(ccc3occc32)c1=O` (stereo not given), for which the Activity with HeLa was determined as 43.3%; with A549 it was 33.3%; with SK-N-SH, 39.4%. Besides, the MIC in assay [1] worked out at 14.5 µM (≈ 6.25 µg/mL).
For `CCOC(=O)C1=C(c2ccccc2)NC(=S)NC1c1coc2ccc(C)cc2c1=O` (stereo not given), the values for the Activity in the assay on HeLa, in the assay on A549 and in the assay with SK-N-SH were 31.5%, 27.2% and 12.1%, respectively. Besides, in assay [1], the MIC is 14.9 µM (≈ 6.26 µg/mL).
Turning to `CCOC(=O)C1=C(C)NC(=O)NC1c1coc2c([N+](=O)[O-])cccc2c1=O` (stereo not given), the Activity with HeLa was found to be 60.6%; in the assay with A549, 47.6%; in the assay on SK-N-SH, 56%. In assay [1], it took 4.18 µM (≈ 1.56 µg/mL) to inhibit growth (MIC).
Consider `COc1cccc2c1C(=O)c1c(O)c3c(c(O)c1C2=O)C[C@@](O)(C(=O)CO)C[C@@H]3O[C@H]1C[C@H](N)[C@H](O)[C@H](C)O1` [DOXORUBICIN], for which the Activity with HeLa is recorded as 86.5%; in the assay with A549, 55%; in the assay with SK-N-SH, 31.8%.
On to `CCOC(=O)C1=C(CCl)NC(=O)NC1c1coc2ccc(C)cc2c1=O` (stereo not given), for which the Activity in the assay with HeLa was determined as 81.4%; with A549, 46.2%; in the assay on SK-N-SH, 55.3%. The same molecule showed an MIC in assay [1] of 16.6 µM (≈ 6.26 µg/mL).
Turning to `CCOC(=O)C1=C(C)NC(=S)NC1c1coc2ccc(-c3ccccc3)cc2c1=O` (stereo not given), the Activity in the assay on HeLa is on record as 40.9%; with A549, 37.4%; in the assay on SK-N-SH, 25.4%. Further, the MIC in assay [1] came out at 59.5 µM (≈ 25 µg/mL).
On to `CCOC(=O)C1=C(CCl)NC(=O)NC1c1coc2ccccc2c1=O` (stereo not given), for which the Activity in the assay with HeLa is 23.3%; in the assay on A549 it was 30.7%; in the assay with SK-N-SH, 18.6%. The molecule further returned an MIC in assay [1] of 34.5 µM (≈ 12.5 µg/mL).
As for `CCOC(=O)C1=C(C(F)(F)F)NC(=O)NC1c1coc2ccc(C)cc2c1=O` (stereo not given), the Activity is given as 33.5% with HeLa, 37.4% in the assay on A549 and 45.5% with SK-N-SH. In addition, in assay [1], inhibition of growth (MIC) required 7.86 µM (≈ 3.12 µg/mL).
`O=C(O)c1cn(C2CC2)c2cc(N3CCNCC3)c(F)cc2c1=O` [CIPROFLOXACIN]: the MIC in assay [1] amounted to 9.44 µM (≈ 3.13 µg/mL).
As for `CCOC(=O)C1=C(C(F)(F)F)NC(=O)NC1c1coc2ccccc2c1=O` (stereo not given), the Activity in the assay with HeLa is 29.2%; in the assay with SK-N-SH it was 23.4%. This molecule registered an MIC in assay [1] of 7.9 µM (≈ 3.02 µg/mL). The result with A549 was inactive.
`COCCOC(=O)C1=C(C)NC(=O)NC1c1coc2ccccc2c1=O` (stereo not given): the results for the Activity in the assay on HeLa, in the assay with A549 and in the assay on SK-N-SH were 38.5%, 23.5% and 23.9%, respectively. Moreover, the MIC in assay [1] stood at 69.8 µM (≈ 25 µg/mL).
As for `CCOC(=O)C1=C(C)NC(=O)NC1c1coc2ccc([N+](=O)[O-])cc2c1=O` (stereo not given), the Activity in the assay on HeLa came out at 54.4%; with SK-N-SH, 28.7%. Further, the MIC in assay [1] came to 4.18 µM (≈ 1.56 µg/mL). Besides, the outcome in the assay with A549 was inactive.
Turning to `CCOC(=O)C1=C(C)NC(=O)NC1c1coc2ccc(Br)cc2c1=O` (stereo not given), the Activity in the assay on HeLa is 32.8%; with A549, 51.4%; in the assay on SK-N-SH, 31.1%. This molecule displayed an MIC in assay [1] of 30.8 µM (≈ 12.5 µg/mL).
For the molecule `COCCOC(=O)C1=C(C)NC(=O)NC1c1coc2cc3occc3cc2c1=O` (stereo not given), the Activity in the assay with HeLa turned out to be 37.6%; in the assay with A549, 34.7%; in the assay with SK-N-SH, 34.7%. In addition, in assay [1], the MIC is 31.4 µM (≈ 12.5 µg/mL).
For the molecule `CCOC(=O)C1=C(C(F)(F)F)NC(=O)NC1c1coc2c(ccc3occc32)c1=O` (stereo not given), the Activity worked out at 32.8% in the assay on HeLa, 27.5% with A549 and 34.3% in the assay with SK-N-SH. The minimum inhibitory concentration (MIC) in assay [1] turned out to be 3.67 µM (≈ 1.55 µg/mL).
Turning to `COCCOC(=O)C1=C(C)NC(=O)NC1c1coc2ccc(Br)cc2c1=O` (stereo not given), the Activity turned out to be 40.2% with HeLa, 29.9% with A549 and 38.4% in the assay with SK-N-SH. Also, it took 28.7 µM (≈ 12.5 µg/mL) to inhibit growth in assay [1] (MIC).
Turning to `CCOC(=O)C1=C(c2ccccc2)NC(=S)NC1c1coc2ccccc2c1=O` (stereo not given), the figures for the Activity in the assay on HeLa, with A549 and with SK-N-SH were 33%, 9.4% and 1.9%, respectively. The MIC in assay [1] stood at 61.6 µM (≈ 25 µg/mL).
Molecule `NNC(=O)c1ccncc1` [ISONIAZID] came in with an MIC in assay [1] of 0.66 µM (≈ 0.0905 µg/mL).
`CCOC(=O)C1=C(c2ccccc2)NC(=O)NC1c1coc2ccc(C)cc2c1=O` (stereo not given): the Activity was 29.8% in the assay on HeLa and 18.6% in the assay with A549. Also, it took 30.9 µM (≈ 12.5 µg/mL) to inhibit growth in assay [1] (MIC). Moreover, the result in the assay on SK-N-SH was inactive.
The matching figures for `CCOC(=O)C1=C(C)NC(=O)NC1c1coc2ccccc2c1=O` (stereo not given): 16.6%, 18.1%, 76.2 µM (≈ 25 µg/mL) and 19%.
For the molecule `COCCOC(=O)C1=C(C)NC(=S)NC1c1coc2ccc(C)cc2c1=O` (stereo not given), the figures for the Activity in the assay on HeLa, with A549 and in the assay on SK-N-SH were 17.4%, 21.2% and 22.8%, respectively. Also, the MIC in assay [1] amounted to 32.2 µM (≈ 12.5 µg/mL).
As for `CCOC(=O)C1=C(C(F)(F)F)NC(=O)NC1c1coc2cc3occc3cc2c1=O` (stereo not given), the Activity in the assay with HeLa is 40.9%; with A549 it was 21.8%; in the assay on SK-N-SH, 6.9%. In assay [1], this molecule returned an MIC of 7.38 µM (≈ 3.12 µg/mL).
The matching figures for `CCOC(=O)C1=C(C(F)(F)F)NC(=O)NC1c1coc2ccc(-c3ccccc3)cc2c1=O` (stereo not given): 28.6%, 31.3%, 10.7% and 3.39 µM (≈ 1.55 µg/mL).
In the case of `CC[C@@H](CO)NCCN[C@@H](CC)CO` [ETHAMBUTOL], it took 7.63 µM (≈ 1.56 µg/mL) to inhibit growth in assay [1] (MIC).
In the case of `CCOC(=O)C1=C(C)NC(=O)NC1c1coc2cc3occc3cc2c1=O` (stereo not given), the Activity is on record as 51.5% in the assay on HeLa, 29.6% in the assay on A549 and 37.5% in the assay on SK-N-SH. For the same molecule, the MIC in assay [1] was 34 µM (≈ 12.5 µg/mL).
`CCOC(=O)C1=C(c2ccccc2)NC(=O)NC1c1coc2cc3occc3cc2c1=O` (stereo not given): the Activity in the assay with HeLa is reported as 59.1%; with A549, 13.1%. In assay [1], this molecule returned a minimum inhibitory concentration (MIC) of 14.5 µM (≈ 6.25 µg/mL). Besides, in the assay with SK-N-SH, the result was inactive.
For the molecule `COCCOC(=O)C1=C(C)NC(=S)NC1c1coc2ccccc2c1=O` (stereo not given), the result in the assay with HeLa, in the assay with A549 and in the assay on SK-N-SH was inactive. The same molecule yielded an MIC in assay [1] of 66.8 µM (≈ 25 µg/mL).
Turning to `COCCOC(=O)C1=C(C)NC(=O)NC1c1coc2c(ccc3occc32)c1=O` (stereo not given), the results for the Activity with HeLa, in the assay on A549 and with SK-N-SH were 61.2%, 4.5% and 8.4%, respectively. Also, the MIC in assay [1] is 31.4 µM (≈ 12.5 µg/mL).

Values taken from ChEMBL document CHEMBL1770089, “Synthesis, structure-activity relationship of novel substituted 4H-chromen-1,2,3,4-tetrahydropyrimidine-5-carboxylates as potential anti-mycobacterial and anticancer agents” (2011).
